Results on six molecules are retold here after US20110306561A1, “COMPLEMENT C3a DERIVED DIMERIC PEPTIDES AND USES THEREOF” (Yeda Research And Devlopment Co. Ltd., priority 2009, published 2011).

Data set [1] relates to RBL-2H3 cells. The data set is classed as cell-based, rat. How it is done:
Mediator secretion by the rat mucosal mast cells, RBL-2H3-line, in response to stimulation by FcεRI clustering was monitored by measuring the activity of the secreted granular enzyme β-hexosaminidase. To this end, a monoclonal DNP-specific murine IgE-class antibody (rat clone 95.3, 1:10^3 dilution) was added to 15×10^6 cells in 10 ml DMEM and incubated in 96 well plates (100 μl suspension/well) for 2 hours. The cell monolayers were then washed three times with Tyrode's buffer (137 mM NaCl, 2.7 mM KCl, 1.8 mM CaCl2, 0.5 mM MgCl2, 0.4 mM NaH2PO4, 5.6 mM glucose, 10 mM Hepes, 0.1% BSA, pH 7.4.) and stimulated with BSA derivatized by an average of 11 DNP groups per molecule (DNP11-BSA) serving as an antigen. To study the effect of the peptides on antigen-induced response, RBL-2H3 cells were pre-incubated with various concentrations of the peptides for 5 minutes at room temperature before the antigen was added at the pre-determined suboptimal dose. The peptides were present throughout the assay. After 1 hour incubation at 37 ° C., 25 μl of the cell supernatants were removed and incubated with 50 μl of β-hexosaminidase substrate solution (1.3 mg/ml p-nitrophenyl-N-acetyl-β-D-glucosamine in 0.1 M sodium citrate, pH 4.5) at 37° C. for 45 minutes. The reaction was terminated by the addition of 150 μl of 0.2 M glycine, pH 10.7, and the optical density of the samples was measured at 405 nm. […] The total enzyme content of the cells/well (following lysis by triton-x-100) and the spontaneous enzyme release of the cells/well was measured in each experiment. All experiments were performed in triplicate and the results were calculated as net secreted enzyme activity (as fraction or percentage of total cell-content) in response to the stimulus.

Data set [2] concerns RBL-2H3 cells. As to conditions: Erdei et al. 1995, 1999; cited from earlier work.
A short description of data set [3]: Circular dichroism (CD) measurement of ordered structure. Format: physicochemical. As to conditions: 100 μg/ml in PBS, room temperature; CD+/CD− not defined. How it is done:
In order to assess possible structural features that characterize the active peptides, CD measurement were carried out. The CD measurements were performed on an Applied Photophysics spetrometer in 1 mm light path cell, at room temperature (about 25° C.). The peptides stock solutions were usually of 5 mg/ml in water and the measurements were done at a 100 μg/ml dilution in PBS.
A general note: Circular dichroism is widely used to follow secondary structure.

Like-named read-outs stand apart in the source and are kept apart here. Residues, ends and D or L forms follow the SMILES beside them. No end group written: not given here.

As to `CC[C@H](C)[C@H](NC(=O)[C@H](Cc1ccc(O)cc1)NC(=O)[C@H](CC(N)=O)NC(=O)[C@H](CO)NC(=O)[C@H](CSSC[C@H](NC(=O)[C@@H](N)CC(=O)O)C(=O)N[C@@H](CO)C(=O)N[C@@H](CC(N)=O)C(=O)N[C@@H](Cc1ccc(O)cc1)C(=O)N[C@H](C(=O)N[C@H](C(=O)N[C@@H](CCCNC(=N)N)C(=O)O)[C@@H](C)O)[C@@H](C)CC)NC(=O)[C@@H](N)CC(=O)O)C(=O)N[C@H](C(=O)N[C@@H](CCCNC(=N)N)C(=O)O)[C@@H](C)O` [Dimer A (5508)2] (HELM PEPTIDE1{D.C.S.N.Y.I.T.R}|PEPTIDE2{D.C.S.N.Y.I.T.R}$PEPTIDE1,PEPTIDE2,2:R3-2:R3$$$V2.0; N-terminus and C-terminus assumed), in the data set with RBL-2H3 cells [1], the “Inhibition of secretion of 3H2 of RBL cells (IC50)” value (“Inhibition” for short) was determined as 15 µg/mL.
For `CC[C@H](C)[C@H](NC(=O)[C@H](Cc1ccc(O)cc1)NC(=O)[C@H](CC(N)=O)NC(=O)[C@H](CSSC[C@H](NC(=O)[C@H](CO)NC(=O)[C@@H](N)CC(=O)O)C(=O)N[C@@H](CC(N)=O)C(=O)N[C@@H](Cc1ccc(O)cc1)C(=O)N[C@H](C(=O)N[C@H](C(=O)N[C@@H](CCCNC(=N)N)C(=O)O)[C@@H](C)O)[C@@H](C)CC)NC(=O)[C@H](CO)NC(=O)[C@@H](N)CC(=O)O)C(=O)N[C@H](C(=O)N[C@@H](CCCNC(=N)N)C(=O)O)[C@@H](C)O` [Dimer B (5513)2] (HELM PEPTIDE1{D.S.C.N.Y.I.T.R}|PEPTIDE2{D.S.C.N.Y.I.T.R}$PEPTIDE1,PEPTIDE2,3:R3-3:R3$$$V2.0; N-terminus and C-terminus assumed), in the data set on RBL-2H3 cells [1], the “Inhibition” value turned out to be 25 µg/mL.
For the molecule `CC[C@H](C)[C@H](NC(=O)[C@H](Cc1ccc(O)cc1)NC(=O)[C@H](CC(N)=O)NC(=O)[C@H](CS)NC(=O)[C@H](CS)NC(=O)[C@@H](N)CC(=O)O)C(=O)N[C@H](C(=O)N[C@@H](CCCNC(=N)N)C(=O)O)[C@@H](C)O` [Monomer C3a9, reference compound] (H-DCCNYITR-OH; N-terminus and C-terminus assumed), in the data set on RBL-2H3 cells [1], the “Inhibition” value was 200 µg/mL.
DCSNYITR [Monomer A (5508)]: in the data set with RBL-2H3 cells [1], the “Inhibition” value turned out to be 75 µg/mL.
“Intact human C3a: human complement component C3a, a 77-mer polypeptide as set forth in SEQ ID NO:1”: the “Effect on IgE-mediated degranulation of RBL-2H3 cells (literature)” value in the data set on RBL-2H3 cells [2] is recorded as “inhibit the IgE-mediated degranulation of RBL-2H3 cells”. Also, the “Inhibition” value in the data set on RBL-2H3 cells [1] (suboptimal DNP11-BSA antigen stimulus, β-hexosaminidase) was found to be 2 µg/mL. For the same molecule, the “Circular Dichroism” value in data set [3] is “CD+”.

B1: C5a: complement activation product C5a, anaphylatoxin (protein, UniProt P01031 678-751, looked up)
C5a anaphylatoxin: TLQKKIEEIAAKYKHSVVKKCCYDGACVNNDETCEQRAARISLGPRCIKAFTECCVVASQLRANISHKDMQLGR
modifications: C5a anaphylatoxin
Take B1: the “Effect on IgE-mediated degranulation of RBL-2H3 cells (literature)” value in the data set on RBL-2H3 cells [2] is “no effect”.
